Experimental data reported in ChEMBL document CHEMBL1139472, “Synthesis of N-{4-[(2,4-diamino-5-methyl-4,7-dihydro-3H-pyrrolo[2,3-d]pyrimidin-6-yl)thio]benzoyl}-L-glutamic acid and N-{4-[(2-amino-4-oxo-5-methyl-4,7-dihydro-3H-pyrrolo[2,3-d]pyrimidin-6-yl)thio]benzoyl}-L-glutamic acid as dual inhibitors of dihydrofolate reductase and thymidylate synthase and …” (J Med Chem, 2005).

Experiments:
[1] = molecular target: Thymidylate synthase (Escherichia coli, UniProt C3SWJ7); assay: Inhibition of Escherichia coli thymidylate synthase
Chain of Thymidylate synthase (Escherichia coli, UniProt C3SWJ7) (C3SWJ7 whole entry): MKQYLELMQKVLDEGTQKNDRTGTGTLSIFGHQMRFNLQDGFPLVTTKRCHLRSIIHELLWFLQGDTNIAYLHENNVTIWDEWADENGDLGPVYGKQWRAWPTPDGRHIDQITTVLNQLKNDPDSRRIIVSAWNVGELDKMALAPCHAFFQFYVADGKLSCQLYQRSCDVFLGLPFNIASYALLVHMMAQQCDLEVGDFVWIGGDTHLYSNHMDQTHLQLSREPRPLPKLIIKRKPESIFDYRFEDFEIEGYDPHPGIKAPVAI

[2] = molecular target: T1, Bifunctional dihydrofolate reductase-thymidylate synthase (Toxoplasma gondii, UniProt Q07422); assay: Inhibition of Toxoplasma gondii thymidylate synthase
T1 sequence (Q07422 whole entry): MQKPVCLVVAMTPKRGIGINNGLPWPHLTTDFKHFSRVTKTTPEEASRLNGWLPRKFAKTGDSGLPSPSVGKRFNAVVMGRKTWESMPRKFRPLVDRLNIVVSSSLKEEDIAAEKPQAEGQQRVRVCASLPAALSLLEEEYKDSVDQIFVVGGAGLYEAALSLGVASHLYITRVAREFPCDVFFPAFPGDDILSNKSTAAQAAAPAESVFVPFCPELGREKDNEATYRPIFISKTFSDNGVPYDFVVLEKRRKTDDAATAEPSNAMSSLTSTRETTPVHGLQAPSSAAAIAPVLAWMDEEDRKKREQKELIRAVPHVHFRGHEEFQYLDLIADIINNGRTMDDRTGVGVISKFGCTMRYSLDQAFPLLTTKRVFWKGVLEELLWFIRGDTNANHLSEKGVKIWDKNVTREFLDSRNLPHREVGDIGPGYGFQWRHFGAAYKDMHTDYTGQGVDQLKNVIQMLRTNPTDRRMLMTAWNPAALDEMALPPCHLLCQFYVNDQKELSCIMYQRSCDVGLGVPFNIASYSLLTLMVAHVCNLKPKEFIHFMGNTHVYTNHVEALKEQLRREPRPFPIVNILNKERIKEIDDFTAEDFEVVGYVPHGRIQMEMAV

[3] = molecular target: Dihydrofolate reductase (Homo sapiens, UniProt P00374)
Chain of Dihydrofolate reductase (Homo sapiens, UniProt P00374) (P00374 whole entry): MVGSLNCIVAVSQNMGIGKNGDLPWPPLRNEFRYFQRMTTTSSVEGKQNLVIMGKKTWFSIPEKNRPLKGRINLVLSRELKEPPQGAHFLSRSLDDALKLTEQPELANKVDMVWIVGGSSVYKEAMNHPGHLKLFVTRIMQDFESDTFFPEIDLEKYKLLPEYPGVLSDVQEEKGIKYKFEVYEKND

[4] = tested on: CCRF-CEM; assay: cells; details: Homo sapiens, 120 h
[5] = molecular target: T1, Bifunctional dihydrofolate reductase-thymidylate synthase; assay: Inhibition of Toxoplasma gondii DHFR
[6] = tested on: CCRF-CEM; assay: cells; details: Homo sapiens, 120 h; remark: listed apart in the source
[7] = molecular target: Thymidylate synthase (Homo sapiens, UniProt P04818)
Chain of Thymidylate synthase (Homo sapiens, UniProt P04818) (P04818 whole entry): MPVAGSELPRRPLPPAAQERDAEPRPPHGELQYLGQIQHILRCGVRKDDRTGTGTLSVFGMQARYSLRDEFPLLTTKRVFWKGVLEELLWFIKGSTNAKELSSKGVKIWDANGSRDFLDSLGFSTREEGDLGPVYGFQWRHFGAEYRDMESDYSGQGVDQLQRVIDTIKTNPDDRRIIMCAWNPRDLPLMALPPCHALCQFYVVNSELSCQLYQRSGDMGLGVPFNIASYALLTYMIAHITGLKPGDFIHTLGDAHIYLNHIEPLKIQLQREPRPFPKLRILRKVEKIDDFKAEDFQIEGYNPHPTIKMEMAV
Description: Inhibition of human thymidylate synthase

[8] = tested on: CCRF-CEM; assay: cells; details: Homo sapiens
Description: Growth inhibition of human CCRF-CEM cells

[9] = molecular target: T2, Dihydrofolate reductase (Escherichia coli, UniProt P0ABQ4)
T2 sequence (P0ABQ4 whole entry): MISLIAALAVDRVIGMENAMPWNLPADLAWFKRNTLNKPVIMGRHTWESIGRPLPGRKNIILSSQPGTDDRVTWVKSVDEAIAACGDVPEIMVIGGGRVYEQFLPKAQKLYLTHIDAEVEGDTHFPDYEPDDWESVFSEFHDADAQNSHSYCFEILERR
Description: Inhibition of Escherichia coli DHFR

[10] = tested on: CCRF-CEM; assay: cells; details: Homo sapiens, 120 h; remark: listed apart in the source
[11] = tested on: CCRF-CEM; assay: Protection against 4000 nM N-{4-[(2,4-diamino-5-methyl-4, 7-dihydro-3H-pyrrolo[2,3-d]pyr imidin-6-yl)thio]benzoyl}-L-gl utamic acid-induced growth inhibition in human CCRF-CEM cells assessed as growth at 5 uM relative to control; format: functional; set-up: scale not given: the % may be the effect or the level left
[12] = tested on: CCRF-CEM; assay: Protection against 40 nM methotrexate-induced growth inhibition in human CCRF-CEM cells assessed as growth at 5 uM relative to control; format: functional; set-up: scale not given: the % may be the effect or the level left
[13] = tested on: CCRF-CEM; assay: Protection of drug-induced growth inhibition by 0.1 uM leucovorin in human CCRF-CEM cells assessed as growth at 20 nM relative to control; format: functional; set-up: scale not given: the % may be the effect or the level left
[14] = tested on: CCRF-CEM; assay: Protection of drug-induced growth inhibition by 10 uM leucovorin in human CCRF-CEM cells assessed as growth at 20 nM relative to control; format: functional; set-up: scale not given: the % may be the effect or the level left
[15] = tested on: CCRF-CEM; assay: Cell growth in human CCRF-CEM cells at 20 nM relative to control; format: functional
[16] = tested on: CCRF-CEM; assay: Protection of drug-induced growth inhibition by 1 uM leucovorin in human CCRF-CEM cells assessed as growth at 20 nM relative to control; format: functional; set-up: scale not given: the % may be the effect or the level left
[17] = tested on: CCRF-CEM; assay: Cell growth in human CCRF-CEM cells at 40 nM relative to control; format: functional

Cc1c(Sc2ccc(C(=O)N[C@@H](CCC(=O)O)C(=O)O)cc2)[nH]c2nc(N)[nH]c(=O)c12
IC50 [1]: > 180 µM | IC50 [2]: 3.6 µM | IC50 [3]: > 240 µM | EC50 [4]: > 20 µM | IC50 [5]: 2.2 µM | EC50 [6]: > 20 µM | IC50 [7]: 100 µM | EC50 [8]: > 20 µM | IC50 [9]: > 240 µM | EC50 [10]: > 20 µM

Cc1cn([C@H]2C[C@H](O)[C@@H](CO)O2)c(=O)[nH]c1=O [DOXRIBTIMINE]
Activity [11]: 20% | Activity [12]: 18%

CN(Cc1cnc2nc(N)nc(N)c2n1)c1ccc(C(=O)N[C@@H](CCC(=O)O)C(=O)O)cc1 [METHOTREXATE]
Activity [13]: 90% | Activity [14]: 95% | Activity [15]: 5% | Activity [16]: 96% | Activity [17]: 12%

Cc1nc2ccc(CN(C)c3ccc(C(=O)N[C@@H](CCC(=O)O)C(=O)O)s3)cc2c(=O)[nH]1 [RALTITREXED]
IC50 [9]: 23 µM
